Columns and labels:
[1] = tested on: gastric emptying of test meal; test: Gastric emptying of a test meal in fasted rats; format: in vivo; conditions: Rattus norvegicus, 1 h; for change in vivo at 10 mg/kg: 10 mg/kg IP; for change in vivo at 9 mg/kg: 9 mg/kg IP (printed 09)
Description: B. Effect of Invention Compounds on Gastric Emptying of a Test Meal in Fasted Rats
The procedure used to test compounds of the present invention for gastric motility enhancing activity is that of Droppleman et al., J. Pharmacol. Methods, 4,227(1980).
Each animal is dosed intraperitoneally (9 or 10 mg/kg) with a test compound or control. After 30 minutes each animal is given 3 mL of a methylcellulose-based test meal formulation. Sixty minutes after administration of the test meal, each animal is sacrificed by cervical dislocation, and the stomach is removed and weighed. The stomach is cut open, rinsed and dried, and reweighed. This difference between the full and empty weights (amount of meal remaining in stomach) is subtracted from the weight of the original test meal to determine the meal amount emptied from the stomach during the test period.
^1 % change in gastric emptying of test meal in rats (dose, mg/kg IP)

[2] = tested on: cisplatin-induced emesis; test: Cisplatin-induced emesis in dogs; format: in vivo; conditions: Canis lupus familiaris; 1 mg/kg IV; cisplatin 3.0 mg/kg IV; 5 hours; read-out: Antiemetic: % change in emetic episodes in dogs induced by cisplatin
Description: A. Effect of Invention Compounds on Cisplatin-induced Emesis in Dogs
The procedure used to test compounds of the present invention for antiemetic properties is a modification of the method of Gylys et al., Res. Commun. Chem. Pathol. Pharm., 23, 61(1979).
Adult, mongrel unfasted dogs of both sexes are randomly assigned into treatment groups, with each treatment group consisting of four dogs. On the dosing day all dogs are given cisplatin, 3.0 mg/kg, intravenously. Sixty minutes later, the dogs in the control treatment group are given deionized water, 0.1 mL/kg intravenously and dogs receiving test compounds are given the test compound in solution (1 mg/kg, IV). All doses are administered as a solution by means of a syringe and needle, and each dog's emetic episodes are recorded for 5 hours after the administration of cisplatin.
^2 % change in emetic episodes in dogs at 1 mg/kg IV induced by […]

[3] = tested on: von Bezold-Jarisch reflex evoked by 5-HT (serotonin); test: Antagonism of the von Bezold-Jarisch reflex evoked by 5-HT in anaesthetized rats; format: in vivo; conditions: Rattus norvegicus; 0.0316 mg/kg IV in anesthetized rats; read-out: Antiserotonin: von Bezold-Jarisch reflex % change in serotonin-induced bradycardia
Description: F. Antagonism of the von Bezold-Jarisch Reflex
The compounds are evaluated for antagonism of the von Bezold-Jarisch reflex evoked by 5-HT (serotonin) in anaesthetized rats according to the method described in European Patent Application 200-444 (Beecham Group).
Male rats (250-350 g) are anaesthetized with urethane (1.25 g/kg intraperitoneally), and blood pressure and heart rate are recorded as described by Fozard J. R. et al., J. Cardiovasc. Pharmacol. 2, 229-245 (1980). A submaximal dose of 5-HT (usually […]) is given repeatedly by the intravenous route and changes in heart rate quantified. Compounds are given intravenously and the inhibition of the 5-HT evoked response is measured. In addition, the concentration required to reduce the 5-HT evoked response to 50% of the control response (ED50) can be determined.
^3 Von BezoldJarisch reflex % change in serotonininduced bradycardia
at 0.0316 mg/kg IV in anesthesized rats.

[4] = tested on: canine Purkinje fibers; test: Cellular electrophysiologic effects in canine Purkinje fibers in vitro; format: cell-based, dog (canine); conditions: Canis lupus familiaris, 20 min, 10^-4 M, after 20 min exposure, read-out: increase in action potential duration at 90% repolarization (APD90)
Description: G. Measurement of Cellular Electrophysiologic Effects in Canine Purkinje Fibers in Vitro
Dogs (12-18 kg) were anesthetized with sodium pentobarbital (30 mg/kg IV). The heart of each dog was rapidly removed through a right lateral thoracotomy and placed in a chilled, oxygenated Tyrode's solution. Purkinje fibers from the right and left ventricles were excised and mounted in a Lucite chamber. The tissue was superfused at a rate of 10-15 mL/min with Tyrode's solution. The temperature of the superfused Tyrode's was maintained at 37° C. and gassed with 95% oxygen-5% carbon dioxide mixture.
The Purkinje fibers were stimulated (paced at cycle length of 400 to 1000 msec) with a silver bipolar wire electrode placed on the surface of the tissue. Transmembrane action potentials were recorded with a glass capillary microelectrodes filled with 3M KCl. […] The measurements derived from the action potential were Vmax (upstroke velocity), APD50 (action potential duration at 50% repolarization), and APD90 (action potential duration at 90% repolarization) as previously described (Bigger and Mandel, 1970; Wu and Hoffman, 1987). […] Measurements of the action potential parameters were recorded after 20 min of test drug exposure. […] Changes in the action potential measurements produced by the test compound were analyzed for statistical significance using a paired-t test. […]

[5] = tested on: exploratory light/dark behavior; test: Anxiolytic test, exploratory light/dark (mice); format: in vivo; conditions: 10 mg/kg IP, significant increase as compared with the controls (30%)
Description: Exploratory Light/Dark (mice)
This method has been described by Young and Johnson (1988) and is a modification of the procedure described by Costall and Naylor (1988). A two compartment light-dark activity monitoring device (Digiscan Model RXYZCM16, Omnitech Electronics Inc., Columbus, Ohio) is used. A 90W light source located 30 cm above the box provides light to the lit portion of the apparatus. Behavioral testing is conducted in a sound-attenuated, darkened room illuminated with red light (25W red bulb) only.
Each animal (mouse) receives a dose or doses of either the test, reference, or control article. The animal is placed at the center of the illuminated area and the behavioral activity tallied over a 5 minute period by use of the Digiscan analyzer. Behavioral variables recorded included: the time spent in the lit and dark areas, the number of rearings in the lit and dark areas, the number of locomotor activity counts in the lit and dark areas, the number of transitions between the lit and dark and lit areas, the latency to make the first transition from the lit area to the dark area, rearing time in the lit and dark areas, locomotor time in the lit and dark areas, and resting time in the lit and dark areas. Appropriate statistical analyses for each measure are performed. […]

COc1cc(N)c(Cl)cc1C(=O)NCC12CCCN(CC1)C2 (stereo not drawn) [Example 1, 4-Amino-N-(1-azabicyclo[3.2.1]oct-5ylmethyl)-5-chloro-2-methoxybenzamide]
change in vivo at 10 mg/kg [1]: 47%
change in vivo at 1 mg/kg [2]: -76%

CNc1cc(OC)c(C(=O)NCC23CCCN(CC2)C3)cc1Cl (stereo not drawn) [Example 2]
change in vivo at 9 mg/kg [1]: 62%
change in vivo at 1 mg/kg [2]: -63%

COCCOc1cc(N)c(Cl)cc1C(=O)NCC12CCCN(CC1)C2 (stereo not drawn) [Example 3]
change in vivo at 0.0316 mg/kg [3]: -74%
change in vivo at 10 mg/kg [1]: 31%
change in vivo at 1 mg/kg [2]: -51%

COc1cc(N)c(Cl)cc1C(=O)NCC12CCCN(CCC1)C2 [Example 4, 4-Amino-N-(1-azabicyclo[3.3.1]non-5-ylmethyl)-5-chloro-2-methoxybenzamide]
change in vivo at 0.0316 mg/kg [3]: -32%
change in vivo at 10 mg/kg [1]: 31%
change in vivo at 1 mg/kg [2]: -62%

CNc1cc(OC)c(C(=O)NCC23CCCN(CCC2)C3)cc1Cl [Example 5, N-(1-Azabicyclo[3.3.1]non-5-ylmethyl)-5-chloro-2-methoxy-4-(methylamino)benzamide]
change in vivo at 9 mg/kg [1]: 58%
change in vivo at 1 mg/kg [2]: -71%

COCCOc1cc(N)c(Cl)cc1C(=O)NCC12CCCN(CCC1)C2 [Example 6, 4-Amino-N-(1-azabicyclo[3.3.1]non-5-ylmethyl)-5-chloro-2-(2-methoxyethoxy)benzamide]
change in vivo at 0.0316 mg/kg [3]: -30%

Cn1cc(C(=O)NCC23CCCN(CCC2)C3)c2ccccc21 [Example 8]
change in vivo at 1 mg/kg [2]: -49%

CS(=O)(=O)Nc1ccc(C(=O)NCC23CCCN(CCC2)C3)cc1 [Example 9, N-(1-Azabicyclo[3.3.1]non-5-ylmethyl)-4-[(methylsulfonyl)amino]benzamide]
activation at 100 µM [4]: 8.5%

COc1cc(N)c(Cl)cc1C(=O)OCC12CCCN(CC1)C2 (stereo not drawn) [Example 10, 4-Amino-5-chloro-2-methoxybenzoic acid 1-azabicyclo[3.2.1]oct-5-ylmethyl ester]
change in vivo at 0.0316 mg/kg [3]: -82%
change in vivo at 10 mg/kg [1]: 47%
change in vivo at 1 mg/kg [2]: -82%

O=C(OCC12CCCN(CC1)C2)c1c[nH]c2ccccc12 (stereo not drawn) [Example 11, 1H-Indole-3-carboxylic acid 1-azabicyclo[3.2.1]oct-5-ylmethyl ester]
change in vivo at 0.0316 mg/kg [3]: -86%
change in vivo at 1 mg/kg [2]: -85%

Cn1cc(C(=O)OCC23CCCN(CC2)C3)c2ccccc21 (stereo not drawn) [Example 12, 1-Methyl-1H-indole-3-carboxylic acid 1-azabicyclo[3.2.1]oct-5-ylmethyl ester]
change in vivo at 0.0316 mg/kg [3]: -81%
time spent in the lit area [5]: 58%

COc1cc(N)c(Cl)cc1C(=O)OCC12CCCN(CCC1)C2 [Example 13, 4-Amino-5-chloro-2-methoxybenzoic acid 1-azabicyclo[3.3.1]non-5-ylmethyl ester]
change in vivo at 0.0316 mg/kg [3]: -23%
change in vivo at 9 mg/kg [1]: 41%
change in vivo at 1 mg/kg [2]: -50%

O=C(OCC12CCCN(CCC1)C2)c1c[nH]c2ccccc12 [Example 14, 1H-Indole-3-carboxylic acid 1-azabicyclo[3.3.1]non-5-ylmethyl ester]
change in vivo at 0.0316 mg/kg [3]: -0.3%
change in vivo at 9 mg/kg [1]: 10%

Cn1nc(C(=O)OCC23CCCN(CC2)C3)c2ccccc21 (stereo not drawn) [Example 15, 1-Methyl-1H-indazole-3-carboxylic acid 1-azabicyclo[3.2.1]oct-5-ylmethyl ester]
change in vivo at 0.0316 mg/kg [3]: -72%
change in vivo at 10 mg/kg [1]: 31%
change in vivo at 1 mg/kg [2]: -93%
